# Laboratory results reported in PMC6691587, “New CXCR1/CXCR2 inhibitors represent an effective treatment for kidney or head and neck cancers sensitive or refractory to reference treatments” (Theranostics, 2019).
# Like-named read-outs stand apart in the source and are kept apart here.
# Columns and labels:
# [1] = tested on: primary kidney tumor cells (CC); assay: Cell viability, primary kidney tumor cells CC; assay type: cell-based
# Experimental: (§1) Fifty microliters of sodium 3′-[1-phenylaminocarbonyl)-3,4-tetrazolium]-bis(4-methoxy-6-nitro) benzene sulfonic acid hydrate (XTT) reagent was added to each well. The assay is based on the cleavage of the yellow tetrazolium salt XTT to form an orange formazan dye by metabolically active cells. This bio-reduction occurs in viable cells only and is related to NAD(P)H production through glycolysis. Therefore, the amount of formazan dye measured at 490 nm directly correlated with the number of metabolically active cells reflecting cell proliferation and viability. Each assay was performed in quadruplicate.
# (§2) For the experiments with C29, we confirmed all the results by evaluating the cell viability. Cell viability and cell death was assessed using the ADAM-MC apparatus (NanoEnTek, Guro-gu, Seoul, Korea) based on fluorescent propidium iodide staining according to the manufacturer's instructions.
# (§3) To determine the selectivity of the activity of the substances tested, the selectivity index (SI) was calculated according to the equation previously described where SI = IC50 of a compound in a normal cell line/IC50 of the same compound in cancer cell line. The IC50 is the concentration required to kill 50% of the cell population.
# [2] = tested on: CAL33; assay: XTT cell viability assay, CAL33 HNSCC cells; assay type: cell-based, human; details: for IC50: Homo sapiens, CAL-33
# Experimental: as §1
# [3] = tested on: caspase 3; assay: Caspase 3 activity assay; assay type: cell-based, human; details: 786, 786R, CAL27, CAL27R; 2.5 and 5 µM, 48 h
# Experimental: Caspase assays have already been described. Briefly, the caspase 3 activity was assessed in quadruplicate using z-DEVD-AMC as substrate and the fluorescence were assessed.
# [4] = tested on: primary kidney tumor cells (TF); assay: Cell viability, primary kidney tumor cells TF; assay type: cell-based
# Experimental: as §1, §2, §3
# [5] = tested on: primary normal kidney cells (15S); assay: Cell viability, primary normal kidney cells; assay type: cell-based
# Experimental: as §1, §2, §3
# [6] = tested on: A498 cells; assay: Ectopic model of RCC (A498 xenograft); assay type: in vivo, nude (nu/nu) female mice
# Experimental: (§4) One microgram of total RNA was used for the reverse transcription, using the QuantiTect Reverse Transcription kit (QIAGEN, Hilden, Germany), with blend of oligo (dT) and random primers to prime first-strand synthesis. SYBR master mix plus (Eurogentec) was used for qPCR. The mRNA level was normalized to 36B4 mRNA. The sequences of oligo nucleotides used in our experiments are describe in Table S1.
# (§5) These studies were carried out in strict accordance with the recommendations in the Guide for the Care and Use of Laboratory Animals. Our experiments were approved by the ''Comité National Institutionnel d'Ethique pour l'Animal de Laboratoire'' (reference: PEA-255 and PEA-277). Cells were injected subcutaneously into the flank of 5-week-old nude (nu/nu) female mice (Janvier). When the tumor reached 100 mm^3, mice were treated. The tumor volume was determined with a caliper (v = L*l2*0.5).
# 1-Seven million A498 cells were injected subcutaneously. Mice were treated five times a week for 4 weeks, by gavage with placebo (dextrose water vehicle) or C29 (50 mg/kg).
# (§6) Sections of formol-fixed and paraffin-embedded tumors were incubated with monoclonal anti-Ki67 (clone MIB1, DAKO) or anti-CD31 (clone MEC 13.3, BD Pharmingen) antibodies. A biotinylated secondary antibody (DAKO) was applied and binding was detected with the substrate diaminobenzidine against a hematoxylin counterstain.
# [7] = tested on: CAL33; assay: Ectopic model of HNSCC (CAL33 xenograft); assay type: in vivo, nude (nu/nu) female mice
# Experimental: as §4, §5
# One million CAL33 were injected subcutaneously.
# as §6
# [8] = tested on: normal cells (15S); assay: FACS analysis of apoptotic markers, normal cells; assay type: cell-based; details: C29 at 1 µmol/L
# Experimental: (§7) Apoptosis analysis: After stimulation, cells were washed with ice-cold PBS and were stained with the annexin-V-fluo staining kit (Roche, Meylan, France) according to the manufacturer's procedure. Fluorescence was measured using the FL2 (AV) and FL3 (propidium iodide, PI) channels of a fluorescence-activated cell sorter apparatus (Calibur cytometer).
# [9] = tested on: TF and CC cells; assay: FACS analysis of apoptotic markers, primary tumor cells; assay type: cell-based; details: C29 at 1 µmol/L
# Experimental: as §7
# [10] = tested on: HuVEC; assay: Boyden chamber migration assay; assay type: cell-based, human; details: CXCL7 50 ng/ml, 2.5 µmol/L compound
# Experimental: CXCL7 or VEGFA-stimulated chemotaxis assays were monitored using modified Boyden chambers containing polycarbonate membranes (8-μm pores, Transwell; Corning, Sigma). Cells were seeded onto the upper side of the filters and chambers were placed on 24-well plates containing CXCL7 (50ng/ml) or VEGFA (50ng/ml). Cell migration was followed for 24 h at 37°C in 5% CO2. Migratory cells on the lower membrane surface were fixed in 3% paraformaldehyde, stained with 0.1% crystal violet.
# [11] = tested on: A498; assay: XTT cell viability assay, A498 RCC cells; assay type: cell-based, human; details: for IC50: Homo sapiens, A498
# Experimental: as §1
# [12] = tested on: OCI-AML2; assay: XTT cell viability assay, OCI-AML2 AML cells; assay type: cell-based, human; details: Homo sapiens, OCI-AML2, 48 h, SD 10%, mean of three experiments, read-out: IC50 L2 (AML)
# Experimental: as §1
# [13] = tested on: Molm14; assay: XTT cell viability assay, Molm14 AML cells; assay type: cell-based, human; details: Homo sapiens, MOLM-14, 48 h, SD 10%, mean of three experiments
# Experimental: as §1
# [14] = tested on: 786, 786R, CAL27 and CAL27R cells; assay: Apoptosis analysis (annexin-V/PI flow cytometry); assay type: cell-based, human; details: sensitive and resistant cells, 2.5 µM, 48 h
# Experimental: as §7
# [15] = CAL33 xenograft, 100 mg/kg gavage
compound,measurement,setting,value
O=C(Nc1cccc(Cl)c1)Nc1nc2ccc([N+](=O)[O-])cc2s1 [C29],IC50,[1]; CXCR1+/CXCR2+,2 µM
same,proliferation of primary kidney tumor cells CC,[1]; Figure S8A-B,significantly decreased
same,Selectivity index CC,[1]; SI = IC50 in normal cells (15S)/IC50 in CC,6.25
same,IC50,"[2]; CXCR1+/CXCR2+, read-out: IC50 CAL33",4 µM
same,IC50,"[2]; XTT assay, 48 h, SD 10%, mean of three experiments, read-out: IC50 33 (HNSCC)",4 µM
same,Selectivity index CAL33,[2]; SI = IC50 in normal cells (15S)/IC50 in CAL33,3.13
same,caspase 3 activity,[3],increase
same,IC50,[4]; CXCR1+/CXCR2+,3.2 µM
same,proliferation of primary kidney tumor cells TF,[4]; Figure S8A-B,significantly decreased
same,Selectivity index TF,[4]; SI = IC50 in normal cells (15S)/IC50 in TF,3.91
same,IC50,"[5]; CXCR1-/CXCR2-, normal primary kidney cells",12.5 µM
same,Selectivity index 15S,"[5]; SI = IC50 in normal cell line (15S)/IC50 in this cell line, reference",1
same,effect on primary normal kidney cells (15S),[5]; even at a higher concentration (5 µmol/L),no effect
same,"mRNA level of murine CD31, experimental RCC",[6],decreased
same,"decrease in the tumor weight, RCC",[6]; 50 mg/kg gavage,40%
same,"proliferation marker Ki-67, experimental RCC",[6]; 50 mg/kg gavage,decreased
same,"weight loss of the animals, RCC model",[6]; 50 mg/kg gavage,did not observe any weight loss
same,"decrease of the tumor volume at the end of the experiment, RCC",[6]; 50 mg/kg gavage five times a week for 4 weeks,more than 65%
same,"PI3K/AKT and ERK pathways in tumor lysates, experimental RCC",[6]; immunoblotting,inhibited PI3K/AKT but not the ERK pathway
same,"mRNA levels of ERL+CXCL cytokines (CXCL5/7/8), experimental RCC","[6]; qPCR, VEGFA not decreased",significantly decreased
same,"mRNA level of murine CD31, experimental HNSCC",[7]; CAL33 xenograft,decreased
same,"decrease in the tumor weight, HNSCC",[7]; [15],65%
same,"proliferation marker Ki-67, experimental HNSCC",[7]; [15],decreased
same,"weight loss of the animals, HNSCC model",[7]; [15],did not observe any weight loss
same,"decrease of the tumor volume at the end of the experiment, HNSCC","[7]; CAL33 xenograft, 100 mg/kg gavage five times a week for two weeks",more than 65%
same,"PI3K/AKT and ERK pathways in tumor lysates, experimental HNSCC","[7]; immunoblotting, CAL33 xenograft",both pathways
same,efficacy on experimental HNSCC compared with danirixin and cisplatin,[7]; oral gavage 100 mg/kg five times a week,"more efficient than danirixin, at the same dose, or than the reference treatment with cisplatin"
same,"mRNA levels of ERL+CXCL cytokines, experimental HNSCC","[7]; qPCR, CAL33 xenograft",Only CXCL5 was decreased
same,apoptotic markers in normal cells (15S),[8],not the case for normal cells
same,apoptotic markers in TF and CC cells,[9],detected apoptotic markers
same,CXCL7-dependent migration of HuVECs,[10],decreased
same,IC50,"[11]; CXCR1+/CXCR2+, read-out: IC50 A498",2.5 µM
same,IC50,"[11]; XTT assay, 48 h, SD 10%, mean of three experiments, read-out: IC50 498 (Kidney RCC)",2.5 µM
same,Selectivity index A498,[11]; SI = IC50 in normal cells (15S)/IC50 in A498,5
same,IC50,[12],5 µM
same,IC50,[13],4 µM
same,cell death (annexin-V/PI),[14],induced cell death
